Data taken from patent US20250034110A1, “LPAR1 ANTAGONISTS AND USES THEREOF” (Pipeline Therapeutics, Inc., priority 2021, published 2025).
Where two headings read alike, the source gives them in different places.

Molecular target: human LPAR1 (Homo sapiens, UniProt Q92633)
Assay: In vitro functional assay of lysophosphatidic acid receptor 1 activity (calcium flux)
Assay type: cell-based
[1] = B103 cells stably expressing human LPAR1, calcium flux (Fluo-4 NW) after lysophosphatidic acid (18:1) at EC80, 100 pM to 10 μM, read-out: LPAR1 IC50

Chain of human LPAR1 (Q92633 whole entry): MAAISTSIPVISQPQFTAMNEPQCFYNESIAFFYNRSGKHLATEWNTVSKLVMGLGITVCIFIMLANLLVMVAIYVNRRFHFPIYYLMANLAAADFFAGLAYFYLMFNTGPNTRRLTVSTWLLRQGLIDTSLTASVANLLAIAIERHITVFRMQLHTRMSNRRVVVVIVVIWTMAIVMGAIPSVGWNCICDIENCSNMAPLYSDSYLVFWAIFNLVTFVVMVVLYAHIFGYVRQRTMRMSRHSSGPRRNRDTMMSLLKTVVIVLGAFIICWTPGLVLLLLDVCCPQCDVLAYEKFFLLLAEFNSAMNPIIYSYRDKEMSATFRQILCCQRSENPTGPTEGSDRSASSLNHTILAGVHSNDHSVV

SMILES	IC50 (LPAR1 IC50) [nM]	IC50 [1] [nM]
COc1ccc(NC(=O)N(c2ccccc2C(C)C)[C@@H]2CCN(C(C)=O)C[C@H]2F)c(OC(F)F)n1 (racemic) [Example 46, rac-1-((3R,4R)-1-acetyl-3-fluoropiperidin-4-yl)-3-(2-(difluoromethoxy)-6-methoxypyridin-3-yl)-1-(2-isopropylphenyl)urea]	10 to 100	–
COc1ccc(NC(=O)N(c2ccccc2C(C)C)[C@H]2CCN(C(C)=O)C[C@H]2F)c(OC(F)F)n1 (racemic) [Example 47, rac-1-((3R,4S)-1-acetyl-3-fluoropiperidin-4-yl)-3-(2-(difluoromethoxy)-6-methoxypyridin-3-yl)-1-(2-isopropylphenyl)urea]	10 to 100	–
COc1ccc(NC(=O)N(c2ccccc2C(C)C)[C@@H]2C[C@@H]3CC[C@H]2N3C(C)=O)c(OC(F)F)n1 (racemic) [Example 59, rac-1-((1R,2R,4S)-7-acetyl-7-azabicyclo[2.2.1]heptan-2-yl)-3-(2-(difluoromethoxy)-6-methoxypyridin-3-yl)-1-(2-isopropylphenyl)urea]	–	100 to 1000
COc1ccc(NC(=O)N(c2ccccc2C(C)C)[C@H]2C[C@@H]3CC[C@H]2N3C(C)=O)c(OC(F)F)n1 (racemic) [Example 60, rac-1-((1R,2S,4S)-7-acetyl-7-azabicyclo[2.2.1]heptan-2-yl)-3-(2-(difluoromethoxy)-6-methoxypyridin-3-yl)-1-(2-isopropylphenyl)urea]	–	> 1000
Cc1ccc(NC(=O)N(C[C@@H]2C[C@H]2C(=O)O)c2ccccc2C(C)C)c(OC(F)F)n1 (racemic) [Example 228]	–	100 to 1000
Cc1ccc(NC(=O)N(c2ccccc2C(C)C)C2CCN(C(=O)OC(C)(C)C)CC2)c(OC(F)F)n1 [Example 1, tert-butyl 4-(3-(2-(difluoromethoxy)-6-methylpyridin-3-yl)-1-(2-isopropylphenyl)ureido)piperidine-1-carboxylate]	100 to 1000	–
Cc1ccc(NC(=O)N(c2ccccc2C(C)C)C2CN(C(=O)OC(C)(C)C)C2)c(OC(F)F)n1 [Example 2, tert-butyl 3-(3-(2-(difluoromethoxy)-6-methylpyridin-3-yl)-1-(2-isopropylphenyl)ureido)azetidine-1-carboxylate]	–	100 to 1000
Cc1ccc(NC(=O)N(c2ccccc2C(C)C)C2(C)COC2)c(OC(F)F)n1 [Example 3, 3-(2-(difluoromethoxy)-6-methylpyridin-3-yl)-1-(2-isopropylphenyl)-1-(3-methyloxetan-3-yl)urea]	–	100 to 1000
Cc1ccc(NC(=O)N(c2ccccc2C(C)C)C2CCC(=O)N(C)C2)c(OC(F)F)n1 (stereo not shown) [Example 4, 3-(2-(difluoromethoxy)-6-methylpyridin-3-yl)-1-(2-isopropylphenyl)-1-(1-methyl-6-oxopiperidin-3-yl)urea]	–	10 to 100
Cc1ccc(NC(=O)N(c2ccccc2C(C)C)[C@@H]2CCC(=O)N(C)C2)c(OC(F)F)n1 [Example 5, (R)-3-(2-(difluoromethoxy)-6-methylpyridin-3-yl)-1-(2-isopropylphenyl)-1-(1-methyl-6-oxopiperidin-3-yl)urea]	–	10 to 100
Cc1ccc(NC(=O)N(c2ccccc2C(C)C)[C@H]2CCC(=O)N(C)C2)c(OC(F)F)n1 [Example 6, (S)-3-(2-(difluoromethoxy)-6-methylpyridin-3-yl)-1-(2-isopropylphenyl)-1-(1-methyl-6-oxopiperidin-3-yl)urea]	–	10 to 100
Cc1ccc(NC(=O)N(c2ccccc2C(C)C)C2CC(=O)N(C)C2)c(OC(F)F)n1 (stereo not shown) [Example 7, 3-(2-(difluoromethoxy)-6-methylpyridin-3-yl)-1-(2-isopropylphenyl)-1-(1-methyl-5-oxopyrrolidin-3-yl)urea]	–	100 to 1000
Cc1ccc(NC(=O)N(c2ccccc2C(C)C)[C@H]2CCN(C(=O)OC(C)(C)C)C2)c(OC(F)F)n1 [Example 8, tert-butyl (S)-3-(3-(2-(difluoromethoxy)-6-methylpyridin-3-yl)-1-(2-isopropylphenyl)ureido)pyrrolidine-1-carboxylate]	–	100 to 1000
Cc1ccc(NC(=O)N(c2ccccc2C(C)C)[C@H]2[C@@H]3CN(C(=O)OC(C)(C)C)C[C@@H]32)c(OC(F)F)n1 [Example 9, tert-butyl (1R,5S,6s)-6-(3-(2-(difluoromethoxy)-6-methylpyridin-3-yl)-1-(2-isopropylphenyl)ureido)-3-azabicyclo[3.1.0]hexane-3-carboxylate]	> 1000	–
Cc1ccc(NC(=O)N(C[C@H]2CCN2C(=O)OC(C)(C)C)c2ccccc2C(C)C)c(OC(F)F)n1 [Example 11, tert-butyl (R)-2-((3-(2-(difluoromethoxy)-6-methylpyridin-3-yl)-1-(2-isopropylphenyl)ureido)methyl)azetidine-1-carboxylate]	–	> 1000
Cc1ccc(NC(=O)N(C[C@@H]2CCN2C(=O)OC(C)(C)C)c2ccccc2C(C)C)c(OC(F)F)n1 [Example 12, tert-butyl (S)-2-((3-(2-(difluoromethoxy)-6-methylpyridin-3-yl)-1-(2-isopropylphenyl)ureido)methyl)azetidine-1-carboxylate]	–	> 1000
Cc1ccc(NC(=O)N(c2ccccc2C(C)C)C2CC2)c(OC(F)F)n1 [Example 13, 1-cyclopropyl-3-(2-(difluoromethoxy)-6-methylpyridin-3-yl)-1-(2-isopropylphenyl)urea]	–	> 1000

SMILES	IC50 (LPAR1 IC50) [nM]	IC50 [1] [nM]
Cc1ccc(NC(=O)N(c2ccccc2C(C)C)C2COC2)c(OC(F)F)n1 [Example 14, 3-(2-(difluoromethoxy)-6-methylpyridin-3-yl)-1-(2-isopropylphenyl)-1-(oxetan-3-yl)urea]	–	10 to 100
Cc1ccc(NC(=O)N(CC2COC2)c2ccccc2C(C)C)c(OC(F)F)n1 [Example 15, 3-(2-(difluoromethoxy)-6-methylpyridin-3-yl)-1-(2-isopropylphenyl)-1-(oxetan-3-ylmethyl)urea]	–	10 to 100
Cc1ccc(NC(=O)N(c2ccccc2C(C)C)[C@@H]2CCOC2)c(OC(F)F)n1 [Example 16, (R)-3-(2-(difluoromethoxy)-6-methylpyridin-3-yl)-1-(2-isopropylphenyl)-1-(tetrahydrofuran-3-yl)urea]	–	10 to 100
Cc1ccc(NC(=O)N(c2ccccc2C(C)C)[C@H]2CCOC2)c(OC(F)F)n1 [Example 17, (S)-3-(2-(difluoromethoxy)-6-methylpyridin-3-yl)-1-(2-isopropylphenyl)-1-(tetrahydrofuran-3-yl)urea]	–	10 to 100
Cc1ccc(NC(=O)N(c2ccccc2C(C)C)C2CCOCC2)c(OC(F)F)n1 [Example 18, 3-(2-(difluoromethoxy)-6-methylpyridin-3-yl)-1-(2-isopropylphenyl)-1-(tetrahydro-2H-pyran-4-yl)urea]	–	10 to 100
Cc1ccc(NC(=O)N(CC2CS(=O)(=O)C2)c2ccccc2C(C)C)c(OC(F)F)n1 [Example 19, 3-(2-(difluoromethoxy)-6-methylpyridin-3-yl)-1-((1,1-dioxidothietan-3-yl)methyl)-1-(2-isopropylphenyl)urea]	–	100 to 1000
Cc1ccc(NC(=O)N(c2ccccc2C(C)C)C2CCS(=O)(=O)CC2)c(OC(F)F)n1 [Example 20, 3-(2-(difluoromethoxy)-6-methylpyridin-3-yl)-1-(1,1-dioxidotetrahydro-2H-thiopyran-4-yl)-1-(2-isopropylphenyl)urea]	–	10 to 100
Cc1ccc(NC(=O)N(c2ccccc2C(C)C)C2CC3(C2)CS(=O)(=O)C3)c(OC(F)F)n1 [Example 21, 3-(2-(difluoromethoxy)-6-methylpyridin-3-yl)-1-(2,2-dioxido-2-thiaspiro[3.3]heptan-6-yl)-1-(2-isopropylphenyl)urea]	–	100 to 1000
Cc1ccc(NC(=O)N(c2ccccc2C(C)C)C2CN(C3COC3)C2)c(OC(F)F)n1 [Example 22, 3-(2-(difluoromethoxy)-6-methylpyridin-3-yl)-1-(2-isopropylphenyl)-1-(1-(oxetan-3-yl)azetidin-3-yl)urea]	–	100 to 1000
Cc1ccc(NC(=O)N(c2ccccc2C(C)C)[C@H]2C[C@H](OCc3ccccc3)C2)c(OC(F)F)n1 [Example 23, 1-((1r,3r)-3-(benzyloxy)cyclobutyl)-3-(2-(difluoromethoxy)-6-methylpyridin-3-yl)-1-(2-isopropylphenyl)urea]	–	100 to 1000
Cc1ccc(NC(=O)N(c2ccccc2C(C)C)[C@H]2C[C@@H](OCc3ccccc3)C2)c(OC(F)F)n1 [Example 24, 1-((1s,3s)-3-(benzyloxy)cyclobutyl)-3-(2-(difluoromethoxy)-6-methylpyridin-3-yl)-1-(2-isopropylphenyl)urea]	–	> 1000
Cc1ccc(NC(=O)N(c2ccccc2C(C)C)[C@H]2C[C@H](C#N)C2)c(OC(F)F)n1 [Example 25, 1-((1r,3r)-3-cyanocyclobutyl)-3-(2-(difluoromethoxy)-6-methylpyridin-3-yl)-1-(2-isopropylphenyl)urea]	–	100 to 1000
Cc1ccc(NC(=O)N(c2ccccc2C(C)C)[C@H]2C[C@@H](C#N)C2)c(OC(F)F)n1 [Example 26, 1-((1s,3s)-3-cyanocyclobutyl)-3-(2-(difluoromethoxy)-6-methylpyridin-3-yl)-1-(2-isopropylphenyl)urea]	–	100 to 1000
Cc1ccc(NC(=O)N(c2ccccc2C(C)C)[C@H]2C[C@H](CC#N)C2)c(OC(F)F)n1 [Example 27, 1-((1r,3r)-3-(cyanomethyl)cyclobutyl)-3-(2-(difluoromethoxy)-6-methylpyridin-3-yl)-1-(2-isopropylphenyl)urea]	–	100 to 1000
Cc1ccc(NC(=O)N(c2ccccc2C(C)C)[C@H]2C[C@@H](CC#N)C2)c(OC(F)F)n1 [Example 28, 1-((1r,3s)-3-(cyanomethyl)cyclobutyl)-3-(2-(difluoromethoxy)-6-methylpyridin-3-yl)-1-(2-isopropylphenyl)urea]	–	10 to 100
C=C(C)c1ccccc1N(C(=O)Nc1ccc(C)nc1OC(F)F)C1CCN(C(C)=O)CC1 [Example 29, 1-(1-acetylpiperidin-4-yl)-3-(2-(difluoromethoxy)-6-methylpyridin-3-yl)-1-(2-(prop-1-en-2-yl)phenyl)urea]	10 to 100	–
Cc1ccc(NC(=O)N(c2ccccc2C(C)C)C2CNC(=O)C2)c(OC(F)F)n1 (stereo not shown) [Example 30, 3-(2-(difluoromethoxy)-6-methylpyridin-3-yl)-1-(2-isopropylphenyl)-1-(5-oxopyrrolidin-3-yl)urea]	–	100 to 1000
